Source: US11999727B2 (Tango Therapeutics, Inc., priority 2020, dated 2024)

How the values were obtained:
PRMT5 [1] = biological target: T1, PRMT5 (Homo sapiens, UniProt O14744); assay: PRMT5 biochemical IC50 assay with SAM as cofactor; conditions: PRMT5, SAM as cofactor; read-out: SAM IC50
T1 construct: purchased Viva (custom protein)

[2] = system: HAP1 MTAP-deleted cell line; assay: Viability assay, MTAP-deleted cell line; format: cell-based; conditions: Homo sapiens, read-out: HAP1 MTAP deleted viability
Text: Table 1 additionally indicates IC50 values in a viability assay for the MTAP-deleted cell line (column 10), indicating the effect of treatment with compound on cell survival.

PRMT5 [3] = biological target: T1, PRMT5; assay: PRMT5 biochemical IC50 assay with no cofactor; conditions: PRMT5, no cofactor
Text: Table 1 indicates IC50 values (μM) against PRMT5 for exemplary compounds in the presence of SAM as cofactor, with no cofactor, and with MTA as cofactor, respectively (columns 4-6). […] Ki values can be calculated from the IC50 values as described in the Examples section. As detailed in the Examples section, for the assay performed in the presence of SAM, IC50=Ki×1.5 (Ki=IC50/1.5).

[4] = system: HAP1 MTAP-intact cell line; assay: SDMA in-cell western assay, HAP1 MTAP-intact; format: cell-based; conditions: Homo sapiens, HAP1, SDMA in-cell western, HAP1 MTAP-intact; read-out: MTAP HAP1 intact IC50
How it was run: (§1)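 Readout: in-cell western detection of SDMA. Cells: HAP1 expressing endogenous MTAP and an MTAP-null HAP1 counterpart. Output: IC50.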

PRMT5 [5] = biological target: T1, PRMT5; assay: PRMT5 biochemical IC50 assay with MTA as cofactor; conditions: PRMT5, MTA as cofactor; read-out: MTA IC50
[6] = system: HAP1 MTAP-deleted cell line; assay: SDMA in-cell western assay, HAP1 MTAP-deleted; format: cell-based; conditions: for IC50: Homo sapiens, HAP1, SDMA in-cell western, HAP1 MTAP-deleted; for MTAP intact/deleted ratio: IC50 ratio HAP1 MTAP-intact / HAP1 MTAP-deleted, SDMA in-cell western
How it was run: as §1

[7] = HAP1, viability assay, MTAP-deleted cell line
[8] = read-out: HAP 1 MTAP deleted IC50
[9] = read-out: No Cofactor/ rel IC50
[10] = HAP1, viability, HAP1 MTAP-deleted cell line
[11] = read-out: HAP1 MTAP deleted IC50
[12] = HAP1, viability IC50, MTAP-deleted cell line
[13] = HAP1, viability assay, HAP1 MTAP-deleted

T1 sequence (O14744 whole entry): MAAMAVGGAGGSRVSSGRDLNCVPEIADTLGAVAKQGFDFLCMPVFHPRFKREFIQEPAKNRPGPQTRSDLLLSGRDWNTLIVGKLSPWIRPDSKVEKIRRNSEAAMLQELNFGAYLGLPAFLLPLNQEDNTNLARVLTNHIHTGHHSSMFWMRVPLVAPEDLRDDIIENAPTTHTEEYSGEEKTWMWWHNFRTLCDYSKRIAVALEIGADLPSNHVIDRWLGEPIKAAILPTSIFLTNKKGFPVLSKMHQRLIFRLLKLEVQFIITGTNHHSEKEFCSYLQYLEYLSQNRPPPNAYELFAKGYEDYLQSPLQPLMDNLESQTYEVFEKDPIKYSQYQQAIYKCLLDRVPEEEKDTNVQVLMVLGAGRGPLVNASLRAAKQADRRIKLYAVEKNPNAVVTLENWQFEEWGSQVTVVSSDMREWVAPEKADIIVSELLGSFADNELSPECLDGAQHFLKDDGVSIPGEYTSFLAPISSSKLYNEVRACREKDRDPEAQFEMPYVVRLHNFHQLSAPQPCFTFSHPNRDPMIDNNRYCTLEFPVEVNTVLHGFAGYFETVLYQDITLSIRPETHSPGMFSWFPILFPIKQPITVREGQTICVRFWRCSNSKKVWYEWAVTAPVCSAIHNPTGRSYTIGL
T1 sequence (Q9BQA1 whole entry partner): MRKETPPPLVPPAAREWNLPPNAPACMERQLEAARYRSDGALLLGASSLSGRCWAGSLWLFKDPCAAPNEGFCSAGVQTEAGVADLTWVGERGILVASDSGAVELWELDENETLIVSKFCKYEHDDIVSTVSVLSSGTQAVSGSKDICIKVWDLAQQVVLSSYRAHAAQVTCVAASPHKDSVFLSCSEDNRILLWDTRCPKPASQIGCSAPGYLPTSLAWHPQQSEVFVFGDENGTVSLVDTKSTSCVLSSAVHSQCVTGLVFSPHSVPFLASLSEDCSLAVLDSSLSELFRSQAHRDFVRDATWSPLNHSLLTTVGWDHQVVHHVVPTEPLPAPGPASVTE

IC50 (PRMT5 [1]) [nM] | IC50 (PRMT5 [3]; read-out: No Cofactor/rel IC50) [nM] | IC50 [4] [nM] | IC50 (PRMT5 [5]) [nM] | IC50 [6, 8] [nM] | IC50 (PRMT5 [3]; [9]) [nM] | IC50 [6, 11] [nM] | Compound | IC50 [2, 7] [nM] | MTAP intact/deleted ratio [6] | IC50 [2, 10] [nM] | IC50 [2, 12] [nM] | IC50 [2, 13] [nM]
50 to 500 | 50 to 500 | > 1000 | < 50 | < 100 | – | – | C[C@H]1CC[C@H](c2cccc3[nH]ncc23)N(C(=O)C(=O)Nc2cncc(C(N)=O)c2)C1 (single isomer, unassigned) [Compound 897] | 1000 to 10000 | A (an IC50 ratio greater than or equal to 10 fold) | – | – | –
50 to 500 | – | 100 to 1000 | < 50 | < 100 | < 50 | – | CCc1cc(NC(=O)C(=O)N2C[C@@H](C)CC[C@@H]2c2ccc(N3CC[C@@H]4CN(C)C[C@@H]4C3)cc2)cnc1N (relative stereo) [Compound 1349] | – | A (an IC50 ratio greater than or equal to 10 fold) | < 1000 | – | –
50 to 500 | – | 100 to 1000 | < 50 | < 100 | < 50 | – | CCc1cc(NC(=O)C(=O)N2C[C@@H](C)CC[C@@H]2c2ccc3c(c2)C(=O)N(C2CCN(C)CC2)C3)cnc1N (racemic) [Compound 1272, N-(6-amino-5-ethyl-3-pyridyl)-2-oxo-2-[rac-(2R,5S)-5-methyl-2-[2-(1-methyl-4-piperidyl)-3-oxo-isoindolin-5-yl]-1-piperidyl]acetamide] | – | A (an IC50 ratio greater than or equal to 10 fold) | < 1000 | – | –
50 to 500 | 50 to 500 | > 1000 | < 50 | < 100 | – | – | C[C@H]1CC[C@H](c2ccc(F)cc2)N(C(=O)C(=O)Nc2cnc(N)c(C3CC3)c2)C1 [Compound 989, N-(6-amino-5-cyclopropyl-3-pyridyl)-2-[(2R,5S)-2-(4-fluorophenyl)-5-methyl-1-piperidyl]-2-oxo-acetamide] | < 1000 | A (an IC50 ratio greater than or equal to 10 fold) | – | – | –
> 500 | > 500 | > 1000 | > 500 | – | – | > 1000 | COc1ncc(NC(=O)C(=O)N2C[C@H](C)CC[C@H]2c2ccc(C(N)=O)s2)cc1C(N)=O (single isomer, unassigned) [Compound 844] | – | C (an IC50 ratio of less than 3 fold) | – | – | > 10000
> 500 | > 500 | > 1000 | > 500 | > 1000 | – | – | COc1ncc(NC(=O)C(=O)N2C[C@H](C)CC[C@H]2c2cccc3[nH]ncc23)cc1C(N)=O (single isomer, unassigned) [Compound 926] | > 10000 | C (an IC50 ratio of less than 3 fold) | – | – | –

Continued, compound first:

Compound | IC50 (PRMT5 [1]) [nM] | IC50 (PRMT5 [3]; read-out: No Cofactor/rel IC50) [nM] | IC50 [4] [nM] | IC50 (PRMT5 [5]) [nM] | IC50 [6, 8] [nM] | IC50 (PRMT5 [3]; [9]) [nM] | IC50 [6, 11] [nM] | IC50 [2, 7] [nM] | MTAP intact/deleted ratio [6] | IC50 [2, 10] [nM] | IC50 [2, 12] [nM] | IC50 [2, 13] [nM]
Cc1cc(NC(=O)C(=O)N2C[C@H](C)CC[C@H]2c2cncnc2)cnc1N (racemic) [Compound 109, rac-N-(6-amino-5-methylpyridin-3-yl)-2-((2R,5S)-5-methyl-2-(pyrimidin-5-yl)piperidin-1-yl)-2-oxoacetamide] | 50 to 500 | – | > 1000 | 50 to 500 | > 1000 | > 500 | – | > 10000 | B (an IC50 ratio greater than or equal to 3 fold but lower than 10 fold) | – | – | –
Cc1cc(NC(=O)C(=O)N2CC[C@H](C#N)C[C@@H]2c2ccccc2)cnc1N (single isomer, unassigned) [Compound 380] | > 500 | > 500 | > 1000 | > 500 | – | – | > 1000 | > 10000 | C (an IC50 ratio of less than 3 fold) | – | – | –
Cc1cc(NC(=O)C(=O)N2C[C@H](C)CC[C@H]2c2ccc(C(N)=O)s2)cnc1N (racemic) [Compound 644, 5-[(2S,5R)-1-[2-[(6-amino-5-methyl-3-pyridyl)amino]-2-oxo-acetyl]-5-methyl-2-piperidyl]thiophene-2-carboxamide] | 50 to 500 | 50 to 500 | 100 to 1000 | 50 to 500 | < 100 | – | – | – | A (an IC50 ratio greater than or equal to 10 fold) | – | < 1000 | –
CC(=O)N[C@H]1CC[C@@H]([C@@H]2CC[C@@H](C)CN2C(=O)C(=O)Nc2cnc(N)c(C)c2)CC1 (single isomer, unassigned) [Compound 281] | > 500 | > 500 | > 1000 | 50 to 500 | – | – | 100 to 1000 | > 10000 | A (an IC50 ratio greater than or equal to 10 fold) | – | – | –
C[C@@H]1CC[C@@H](c2ccc(Cl)c(C(F)(F)F)c2)N(C(=O)C(=O)Nc2cncc(C(N)=O)c2)C1 (racemic) [Compound 337, rac-5-{2-[(2R,5S)-2-[4-Chloro-3-(trifluoromethyl)phenyl]-5-methylpiperidin-1-yl]-2-oxoacetamido}pyridine-3-carboxamide] | > 500 | 50 to 500 | > 1000 | 50 to 500 | – | – | 100 to 1000 | 1000 to 10000 | A (an IC50 ratio greater than or equal to 10 fold) | – | – | –
Cc1cc(NC(=O)C(=O)N2C[C@@H](C)CC[C@H]2C23CC(O)(C2)C3)cnc1N (racemic) [Compound 774] | > 500 | > 500 | > 1000 | 50 to 500 | – | – | > 1000 | – | B (an IC50 ratio greater than or equal to 3 fold but lower than 10 fold) | – | – | > 10000
Cc1cc(NC(=O)C(=O)N2C[C@H](C)CC[C@@H]2C)cnc1N (racemic) [Compound 168, N-(6-amino-5-methyl-3-pyridyl)-2-[(2S,5R)-2,5-dimethyl-1-piperidyl]-2-oxo-acetamide] | 50 to 500 | – | > 1000 | 50 to 500 | > 1000 | 50 to 500 | – | > 10000 | C (an IC50 ratio of less than 3 fold) | – | – | –
CC(=O)Oc1ccc([C@@H]2CC[C@@H](C)CN2C(=O)C(=O)Nc2cncc(C(N)=O)c2)cc1 (single isomer, unassigned) [Compound 599, 4-(1-(2-((5-carbamoylpyridin-3-yl)amino)-2-oxoacetyl)-5-methylpiperidin-2-yl)phenyl acetate] | > 500 | > 500 | > 1000 | > 500 | > 1000 | – | – | – | B (an IC50 ratio greater than or equal to 3 fold but lower than 10 fold) | – | > 10000 | –
CCc1cc(NC(=O)C(=O)N2C[C@@H](C)CC[C@@H]2c2ccc3[nH]c(=O)ccc3c2)cnc1N (single isomer, unassigned) [Compound 825] | 50 to 500 | < 50 | 100 to 1000 | < 50 | – | – | < 100 | – | A (an IC50 ratio greater than or equal to 10 fold) | – | – | < 1000
Cc1cc(NC(=O)C(=O)N2C[C@H](C)CC[C@H]2c2cccc3[nH]ncc23)cnc1N (single isomer, unassigned) [Compound 785] | 50 to 500 | < 50 | 100 to 1000 | < 50 | – | – | < 100 | – | A (an IC50 ratio greater than or equal to 10 fold) | – | – | < 1000
